Earlier results in patent US20060251750A1, “Soy formulations and their use in skin care” (priority 2002, published 2006).

Key:
[1] = tested on: UV radiation; conditions: lotions
[2] = tested on: photocarcinogenesis; conditions: hairless mice; both topical and oral administration
[3] = tested on: squamous cell carcinomas; conditions: daily topical applications of lotions

Compound | inflammatory edema reactions induced by UV radiation [1] | suppression of contact hypersensitivity induced by UV radiation [1] | initiation and promotion of photocarcinogenesis [2] | tumor incidence and multiplicity [2] | proportion of tumors progressing from benign papillomas to malignant squamous cell carcinomas [3] | size of these carcinomas [3]
Oc1ccc(C2=Cc3ccc(O)cc3OC2)cc1 [dehydroequol] | reduce | reduce |  |  |  | 
O=c1c(-c2ccc(O)cc2)coc2cc(O)cc(O)c12 [genistein] | reduce | reduce | inhibit | reduction |  | 
Oc1ccc([C@H]2COc3cc(O)ccc3C2)cc1 [equol] | reduce | reduce |  |  | reduce | reduce
isoequol | reduce | reduce |  |  |  | 
